The values below come from patent US20240390383A1, “DIOXAZINES AND THEIR USE IN TREATMENT OF GBA-RELATED DISEASES” (ZEVRA DENMARK A/S, priority 2021, published 2024).

As a reminder, the Emax is the size of the effect at its maximum, as opposed to the concentration needed.

The experiment concerns the target T1, GCase (GBA) in human fibroblast cell line GM10915 harboring the L444P GBA mutation (Homo sapiens, UniProt P04062, L483P).
T1 construct: Human fibroblast cell line GM10915 harboring the L444P GBA mutation; host or cells: GM10915 human fibroblasts
T1 sequence (P04062 40-536 L483P): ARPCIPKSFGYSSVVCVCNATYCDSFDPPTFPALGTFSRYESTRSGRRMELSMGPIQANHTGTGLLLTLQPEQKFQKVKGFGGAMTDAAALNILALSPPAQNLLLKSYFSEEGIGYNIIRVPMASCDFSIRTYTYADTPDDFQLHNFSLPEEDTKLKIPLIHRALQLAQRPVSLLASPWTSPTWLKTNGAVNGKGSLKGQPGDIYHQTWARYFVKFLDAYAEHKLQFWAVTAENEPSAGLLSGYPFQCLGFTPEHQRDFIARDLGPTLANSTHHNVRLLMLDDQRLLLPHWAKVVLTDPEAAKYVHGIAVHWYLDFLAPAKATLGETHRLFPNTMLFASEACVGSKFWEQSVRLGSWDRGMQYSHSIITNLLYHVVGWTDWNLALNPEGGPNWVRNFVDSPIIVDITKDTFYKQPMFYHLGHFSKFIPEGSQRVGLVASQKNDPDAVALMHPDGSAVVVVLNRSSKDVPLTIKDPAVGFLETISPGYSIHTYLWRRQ
Put plainly: GCase activity assay (4-MUG substrate, normalised to crystal violet staining) in L444P GBA fibroblasts. It counts as cell-based. Particulars: 5 days exposure; for GBA EC1.5: concentration giving 150% GCase activity (1.5-fold induction), 8-point dose range; for Emax: maximum percent GCase activity relative to untreated cells in the dose range tested. How it is done:
Human fibroblast cell line GM10915 harboring the L444P GBA mutation was obtained from Coriell Biorepositories.
All chemicals (Glacial acetic acid, Glycine, 4-Methylumbelliferyl b-D-glucopyranoside (4-MUG), Sodium acetate trihydrate, Sodium hydroxide, Crystal violet, SDS, Ammonium hydroxide) were obtained from Sigma-Aldrich (Denmark) Compounds tested for GCase activity were dissolved in H2O or DMSO.
The GM10915 cell line was cultured under standard cell culture conditions (37° C. and 5% CO2) in complete DMEM medium supplemented with nonessential amino acids (NEAA), 1% Pen-Strep and 12% FCS. Cells were seeded at a density of 10^4 cells/well in 100 μL complete medium in one black 96-well plate for glucosylceramidase (GCase) activity measurement and in one clear 96-well plate for crystal violet staining to correct for cell density. Crystal violet staining is performed to obtain quantitative information about the relative density of cells adhering to multi-wells plates.
The assay was adapted from Sawkar et al (2002) and briefly described in the following. The day after seeding of cells, the medium was replaced with fresh medium containing the compounds to be tested. Compounds were tested in duplicate and in an 8-point diluted dose range to obtain a dose response. Cells were exposed with compounds for five days. Fresh compound was added every 2-3 days. PBS was included to define the basal level of GCase activity.
Cells were washed three times with 200 μL PBS per well and 50 μL of 2.5 mM 4-MUG buffer (4-MUG dissolved in 0.2 M acetate buffer pH 4.0) was added and the cells were incubated at 37° C., 5% CO2 for 23 hours. The reaction was stopped by adding 150 μL 0.2 M glycine buffer (pH 10.8). Fluorescence was measured with a Varioskan® Flash reader (Thermo Scientific) at an excitation/emission setting of 365/445 nm.
Cells were treated with compounds in a parallel setup identical to the setup to test for GCase activity. At the end of compound treatment, cells were washed once with 200 μL PBS per well and 50 μL 0.1% w/v crystal violet (in H2O) was added. Following 10 min. of incubation, the crystal violet solution was removed, and the cells were washed three times with 200 μL PBS and 100 μL 1% SDS was added to solubilize the stain. The plate was agitated on an orbital shaker for 10-30 min. Absorbance (A) is measured at […] using a Varioskan® Flash reader (Thermo Scientific).
The fluorescence signal (F) derived from the GCase measurement is normalized to the absorbance signal (A) derived from the crystal violet staining. The percent GCase activity resulting from compound treatment is calculated relative to the basal activity obtained from untreated cells.
Maximal effect of compounds (Emax) is determined from the dose response effects as the maximum “Percent GCase activity” achieved in the dose range tested.

On to `C[C@@]1(C2=NOC[C@H](CN3CCCCC3)O2)CCCNC1` [compound 882], for which the “GBA EC1.5” value came to 5 µM and the Emax stood at 214%.

Take `CN(C)CCCC1=NOCC(CN2CCCCC2)O1` (racemic) [compound 768, rac-N,N-dimethyl-3-(5-(piperidin-1-ylmethyl)-5,6-dihydro-1,4,2-dioxazin-3-yl)propan-1-amine]: the “GBA EC1.5” value was determined as 6 µM and the Emax amounted to 238%.

As for `CN1CCC2CN(CC3CON=C(C4(C)CCNCC4)O3)CC2C1` (stereo not shown) [compound 602], the “GBA EC1.5” value was determined as 50 µM and the Emax was 121%.

Regarding `C1CCN(CC2CON=C(C34CNC(C3)C4)O2)CC1` (racemic) [compound 527, rac-3-(2-azabicyclo[2.1.1]hexan-4-yl)-5-(piperidin-1-ylmethyl)-5,6-dihydro-1,4,2-dioxazine], the “GBA EC1.5” value worked out at 26 µM and the Emax came out at 187%.

Take `C1CCN(CC2CON=C([C@@]34CNC[C@@H]3C4)O2)CC1` (relative stereo) [compound 482, rac-rel-trans-3-((1R,5R)-3-azabicyclo[3.1.0]hexan-1-yl)-5-(piperidin-1-ylmethyl)-5,6-dihydro-1,4,2-dioxazine]: the “GBA EC1.5” value came to 14 µM and the Emax was 268%.

For the compound `C[C@@H]1CNC[C@@]1(C)C1=NOCC(CN2CCCCC2)O1` (relative stereo) [compound 489, rac-rel-cis-3-((3R,4R)-3,4-dimethylpyrrolidin-3-yl)-5-(piperidin-1-ylmethyl)-5,6-dihydro-1,4,2-dioxazine], the “GBA EC1.5” value was found to be 29 µM and the Emax turned out to be 242%.

Turning to `CN(C)CC1CON=C(C2CCNC2)O1` (stereo not shown) [compound 615], the “GBA EC1.5” value came out at 50 µM and the Emax was found to be 108%.

Consider `CN1CCN(CC2CON=C(C3(Cc4cccnc4)CCNCC3)O2)CC1` (stereo not shown) [compound 686], for which the “GBA EC1.5” value is 50 µM and the Emax was found to be 97%.

For the compound `c1sc(C2CCCNC2)nc1C1=NOCC(CN2CCCCC2)O1` (stereo not shown) [compound 876], the “GBA EC1.5” value worked out at 4 µM and the Emax is 180%.

`c1csc(N2CCC(C3=NOCC(CN4CCCCC4)O3)CC2)n1` (stereo not shown) [compound 635]: the “GBA EC1.5” value was determined as 50 µM and the Emax is 135%.

On to `C1CCN(CC2CON=C([C@]34CC[C@H]3CNC4)O2)CC1` (relative stereo) [compound 485, rac-rel-trans-3-((1R,5R)-3-azabicyclo[3.2.0]heptan-1-yl)-5-(piperidin-1-ylmethyl)-5,6-dihydro-1,4,2-dioxazine di-2,2,2-trifluoroacetate], for which the “GBA EC1.5” value was 25 µM and the Emax was 174%.

As for `CC(C)(C1=NOCC(CN2CCCCC2)O1)C1CCNCC1` (racemic) [compound 477, rac-5-(piperidin-1-ylmethyl)-3-(2-(piperidin-4-yl)propan-2-yl)-5,6-dihydro-1,4,2-dioxazine di-2,2,2-trifluoroacetate], the “GBA EC1.5” value is 15 µM and the Emax is 181%.

Consider `COc1ccc(CC2(C3=NOCC(CN4CCCCC4)O3)CCNCC2)c(C)n1` (stereo not shown) [compound 703], for which the “GBA EC1.5” value was 50 µM and the Emax is 113%.

In the case of `CN(C)CC1(C2=NOCC(CN3CCCCC3)O2)CCN(C)C1` (racemic) [compound 826, rac-N,N-dimethyl-1-(1-methyl-3-(5-(piperidin-1-ylmethyl)-5,6-dihydro-1,4,2-dioxazin-3-yl)pyrrolidin-3-yl)methanamine], the “GBA EC1.5” value amounted to 7 µM and the Emax was found to be 190%.

Regarding `O=c1[nH]nc2n1CCC(C1=NOCC(CN3CCCCC3)O1)C2` (stereo not shown) [compound 668], the “GBA EC1.5” value is 50 µM and the Emax came to 116%.

Regarding `CN(C)C(=O)N1CCCC(C2=NOCC(CN3CCCCC3)O2)C1` (stereo not shown) [compound 670], the “GBA EC1.5” value was found to be 50 µM and the Emax was found to be 126%.

Turning to `N[C@@H]1CN[C@H](C2=NOCC(CN3CCCCC3)O2)C1` (stereo partly shown) [compound 596], the “GBA EC1.5” value is 50 µM and the Emax stood at 105%.
